# From patent publication US20140057915A1, “KINASE INHIBITORS” (TOPIVERT PHARMA LIMITED, priority 2012, published 2014)
# What was measured:
# GSK3α = GSK3α (Homo sapiens, UniProt P49840); test: GSK 3α enzyme inhibition (FRET), Method 1; type: biochemical; conditions: Table 4a1
# Summary of the method: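 GSK3α was preincubated with test compound for 2 hr at RT, then a FRET peptide substrate and ATP were added for 1 hr. Protease development for 1 hr cleaved only non-phosphorylated peptide, and phosphorylation was read as the coumarin/fluorescein emission ratio. Concentrations given are those of the added solutions: enzyme 500 ng/mL, peptide 8 μM, ATP 40 μM.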
# [1] = system: TNFα release, d-U937 cells; test: LPS-induced TNFα release in d-U937 cells; type: cell-based; conditions: Homo sapiens, dU937; relative to 10 μg/mL BIRB796; Table 4c1; read-out: LPS Induced Release of Cytokine in d-U937 Cells, TNFα REC50
# Summary of the method: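 U937 cells differentiated with PMA (100 ng/mL, 48–72 hr), pre-treated with compound for 2 hr, then stimulated with E. coli LPS (0.1 μg/mL) for 4 hr. Supernatant cytokine measured by sandwich ELISA; inhibition versus vehicle control, REC50 from concentration-response curve.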
# [2] = system: ICAM-1 expression, BEAS2B cells; test: Poly I:C-induced ICAM-1 expression in BEAS2B cells; type: cell-based; conditions: Homo sapiens, BEAS-2B; read-out: Poly IC induced ICAM1 in BEAS2B, IC50
# Summary of the method: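 BEAS2B human bronchial epithelial cells pre-incubated 2 h with compound, then transfected with poly I:C (1 μg/mL) plus Oligofectamine. After 18 h, cell-surface ICAM-1 read by cell-based ELISA (A450–655), normalised to Crystal Violet cell number (A595); inhibition calculated against vehicle control at each concentration.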
# d-U937 cells = test: Cell viability: MTT assay; type: cell-based, human; conditions: 1 μg/mL
# Summary of the method: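 Differentiated U937 cells exposed to compound at 1 or 10 μg/mL, either 4 h in 5% FCS or 24 h in 10% FCS RPMI1640. MTT then added for 1 h, formazan dissolved in DMSO and read at 550 nm. Viability loss given as % versus 0.5% DMSO vehicle; apparent gains appear negative.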
# [3] = system: IL-8 release, d-U937 cells; test: LPS-induced IL-8 release in d-U937 cells; type: cell-based; conditions: Homo sapiens, dU937; Table 4c1; read-out: LPS Induced Release of Cytokine in d-U937 Cells, IL-8 IC50
# Summary of the method: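 IL-8 release after a 4 hr challenge with LPS (0.1 μg/mL, E. coli 0111:B4) following a 2 hr compound pretreatment. Cells were human U937 monocytes differentiated to macrophage-type with PMA 100 ng/mL for 48–72 hr. Relative 50% effective concentration derived from concentration–response data.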
# Syk = Syk (Homo sapiens, UniProt P43405); test: Syk enzyme inhibition (FRET); type: biochemical; conditions: Table 4a1
# Summary of the method: (§1)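 2 hr RT enzyme + cpd (added solns 4/0.4/0.04/0.004 μg/mL); + FRET peptide (8 μM soln) + ATP soln (c-Src 800 μM, Syk 60 μM), 1 hr; protease development 1 hr; read donor/acceptor emission ratio.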
# cSrc = cSrc (Homo sapiens, UniProt P12931); test: c-Src enzyme inhibition (FRET); type: biochemical; conditions: Table 4a1
# Sequence of cSrc (P12931 whole entry): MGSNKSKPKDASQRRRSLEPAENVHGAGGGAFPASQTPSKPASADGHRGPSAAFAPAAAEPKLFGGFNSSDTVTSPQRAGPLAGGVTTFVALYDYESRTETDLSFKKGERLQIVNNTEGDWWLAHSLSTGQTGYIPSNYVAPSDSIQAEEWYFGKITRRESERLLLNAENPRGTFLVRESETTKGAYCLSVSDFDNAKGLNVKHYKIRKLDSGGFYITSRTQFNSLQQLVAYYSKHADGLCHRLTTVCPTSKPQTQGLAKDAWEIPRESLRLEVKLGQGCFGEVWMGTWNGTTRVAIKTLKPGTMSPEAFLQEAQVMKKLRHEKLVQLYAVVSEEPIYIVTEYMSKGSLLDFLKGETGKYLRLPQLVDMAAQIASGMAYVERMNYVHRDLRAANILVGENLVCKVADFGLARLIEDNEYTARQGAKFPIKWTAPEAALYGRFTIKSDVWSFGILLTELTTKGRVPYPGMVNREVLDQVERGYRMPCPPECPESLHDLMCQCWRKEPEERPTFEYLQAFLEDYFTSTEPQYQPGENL
# Summary of the method: as §1
# Sequence of GSK3α (P49840 whole entry): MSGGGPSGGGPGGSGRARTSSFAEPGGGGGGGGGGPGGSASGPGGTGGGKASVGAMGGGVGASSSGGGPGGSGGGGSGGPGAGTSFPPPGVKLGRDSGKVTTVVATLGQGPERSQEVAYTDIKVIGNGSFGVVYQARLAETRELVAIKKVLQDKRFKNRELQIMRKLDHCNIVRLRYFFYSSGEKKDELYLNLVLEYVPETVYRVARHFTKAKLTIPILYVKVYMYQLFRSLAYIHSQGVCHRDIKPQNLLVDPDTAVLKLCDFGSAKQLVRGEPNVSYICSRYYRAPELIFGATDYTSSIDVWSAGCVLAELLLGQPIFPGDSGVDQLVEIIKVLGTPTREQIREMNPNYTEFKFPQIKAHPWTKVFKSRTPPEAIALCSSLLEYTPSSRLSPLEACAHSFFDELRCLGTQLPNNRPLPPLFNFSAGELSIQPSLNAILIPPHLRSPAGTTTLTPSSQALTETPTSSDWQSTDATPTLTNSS
IC50 (GSK3α) [nM],EC50 [1] [nM],IC50 [3] [nM],IC50 (Syk) [nM],IC50 (cSrc) [nM],Compound,IC50 [2] [nM],"Cell viability at time point in d-U937 cells, 4 h (d-U937 cells)","Cell viability at time point in d-U937 cells, 24 h (d-U937 cells)"
295,1.5,1.8,> 1440,7,"Cc1ccc(-n2nc(C(C)(C)C)cc2NC(=O)Nc2ccc(Oc3ccnc(Nc4cccc(C(=O)NCCN(C)C)c4)n3)c3ccccc23)cc1 [Example 18, 3-((4-((4-(3-(3-(tert-butyl)-1-(p-tolyl)-1H-pyrazol-5-yl)ureido)naphthalen-1-yl)oxy)pyrimidin-2-yl)amino)-N-(2-(dimethylamino)ethyl)benzamide]",2.3,"−ve (−ve and +ve indicate that the value is below and above respectively, the no significant effect threshold, defined as 30% inhibition at 1 μg/mL at the time point indicated)","−ve (−ve and +ve indicate that the value is below and above respectively, the no significant effect threshold, defined as 30% inhibition at 1 μg/mL at the time point indicated)"
1400,1.3,1.7,1390,9,"CNC(=O)c1cccc(Nc2nccc(Oc3ccc(NC(=O)Nc4cc(C(C)(C)C)nn4-c4ccc(C)cc4)c4ccccc34)n2)c1 [Example 16, 3-((4-((4-(3-(3-(tert-butyl)-1-(p-tolyl)-1H-pyrazol-5-yl)ureido)naphthalen-1-yl)oxy)pyrimidin-2-yl)amino)-N-methylbenzamide]",1.9,"−ve (−ve and +ve indicate that the value is below and above respectively, the no significant effect threshold, defined as 30% inhibition at 1 μg/mL at the time point indicated)","−ve (−ve and +ve indicate that the value is below and above respectively, the no significant effect threshold, defined as 30% inhibition at 1 μg/mL at the time point indicated)"
1190,2,6.8,12,< 1,"COc1ccc(-n2nc(C3CCOC3)cc2NC(=O)Nc2ccc(Oc3ccnc(Nc4cc(OC)cc(C(=O)NCCN5CCOCC5)c4)n3)c3ccccc23)cc1 (centres unmarked) [Example 59, 3-methoxy-5-((4-((4-(3-(1-(4-methoxyphenyl)-3-(tetrahydrofuran-3-yl)-1H-pyrazol-5-yl)ureido)naphthalen-1-yl)oxy)pyrimidin-2-yl)amino)-N-(2-morpholinoethyl)benzamide]",39.7,"−ve (−ve and +ve indicate that the value is below and above respectively, the no significant effect threshold, defined as 30% inhibition at 1 μg/mL at the time point indicated)","−ve (−ve and +ve indicate that the value is below and above respectively, the no significant effect threshold, defined as 30% inhibition at 1 μg/mL at the time point indicated)"
356,1.3,1.9,14,5,"COc1ccc(-n2nc(C(C)(C)C)cc2NC(=O)Nc2ccc(Oc3ccnc(Nc4cccc(C(=O)NCCN5CCOCC5)c4)n3)c3ccccc23)cc1 [Example 21, 3-((4-((4-(3-(3-(tert-butyl)-1-(4-methoxyphenyl)-1H-pyrazol-5-yl)ureido)naphthalen-1-yl)oxy)pyrimidin-2-yl)amino)-N-(2-morpholinoethyl)benzamide]",0.8,"−ve (−ve and +ve indicate that the value is below and above respectively, the no significant effect threshold, defined as 30% inhibition at 1 μg/mL at the time point indicated)","−ve (−ve and +ve indicate that the value is below and above respectively, the no significant effect threshold, defined as 30% inhibition at 1 μg/mL at the time point indicated)"
